Measurements: PubChem BioAssay (NCI)
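Briefly, cells in 96-well plates were exposed to five compound concentrations for 48 h, and endpoints were estimated by linear interpolation. The concentration for full growth arrest is given as TGI.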

What was measured:
Assay in all cases: inhibition of tumour cell growth, NCI panel, 48 h
CAKI-1 renal = test system: CAKI-1 renal
T-47D breast = test system: T-47D breast
NCI-H460 lung = test system: NCI-H460 lung
RXF-631 renal = test system: RXF-631 renal
U251 CNS = test system: U251 CNS
HCT-116 colon = test system: HCT-116 colon
OVCAR-4 ovarian = test system: OVCAR-4 ovarian
NCI-H23 lung = test system: NCI-H23 lung
SNB-19 CNS = test system: SNB-19 CNS
CCRF-CEM leukemia = test system: CCRF-CEM leukemia
KM12 colon = test system: KM12 colon
A549 NSCLC = test system: A549 NSCLC
TK-10 renal = test system: TK-10 renal
K-562 leukemia = test system: K-562 leukemia
MALME-3M melanoma = test system: MALME-3M melanoma
IGROV1 ovarian = test system: IGROV1 ovarian
SK-OV-3 ovarian = test system: SK-OV-3 ovarian
LXFL 529 NSCLC = test system: LXFL 529 NSCLC
KM20L2 colon = test system: KM20L2 colon
MDA-N = test system: MDA-N
HCT-15 colon = test system: HCT-15 colon
MCF7 breast = test system: MCF7 breast
MDA-MB-435 = test system: MDA-MB-435
SR leukemia = test system: SR leukemia
HOP-18 NSCLC = test system: HOP-18 NSCLC
HOP-62 NSCLC = test system: HOP-62 NSCLC
SF-295 CNS = test system: SF-295 CNS
OVCAR-8 ovarian = test system: OVCAR-8 ovarian
RXF 393 renal = test system: RXF 393 renal
SN12C renal = test system: SN12C renal
SW-620 colon = test system: SW-620 colon
SF-539 CNS = test system: SF-539 CNS
DLD-1 colon = test system: DLD-1 colon
HS 578T breast = test system: HS 578T breast
A498 renal = test system: A498 renal
786-0 renal = test system: 786-0 renal
DU-145 prostate = test system: DU-145 prostate
PC-3 prostate = test system: PC-3 prostate
SK-MEL-2 melanoma = test system: SK-MEL-2 melanoma
MDA-MB-231 breast = test system: MDA-MB-231 breast
SK-MEL-28 melanoma = test system: SK-MEL-28 melanoma
DMS 273 small cell lung = test system: DMS 273 small cell lung
HOP-92 NSCLC = test system: HOP-92 NSCLC
NCI/ADR-RES ovarian = test system: NCI/ADR-RES ovarian
UO-31 renal = test system: UO-31 renal
OVCAR-3 ovarian = test system: OVCAR-3 ovarian
DMS 114 small cell lung = test system: DMS 114 small cell lung
NCI-H226 lung = test system: NCI-H226 lung
EKVX NSCLC = test system: EKVX NSCLC
OVCAR-5 ovarian = test system: OVCAR-5 ovarian
RPMI-8226 leukemia = test system: RPMI-8226 leukemia
LOX IMVI melanoma = test system: LOX IMVI melanoma
M14 melanoma = test system: M14 melanoma
UACC-257 melanoma = test system: UACC-257 melanoma
NCI-H522 lung = test system: NCI-H522 lung
SF-268 CNS = test system: SF-268 CNS
ACHN renal = test system: ACHN renal
HT29 colon = test system: HT29 colon
BT-549 breast = test system: BT-549 breast
HL-60(TB) leukemia = test system: HL-60(TB) leukemia
M19-MEL melanoma = test system: M19-MEL melanoma
MOLT-4 leukemia = test system: MOLT-4 leukemia
HCC-2998 colon = test system: HCC-2998 colon
SNB-78 CNS = test system: SNB-78 CNS
SNB-75 CNS = test system: SNB-75 CNS
SK-MEL-5 melanoma = test system: SK-MEL-5 melanoma
UACC-62 melanoma = test system: UACC-62 melanoma
COLO 205 colon = test system: COLO 205 colon

SMILES: COc1cc(Cn2c(=S)ss/c2=N\C(=S)N(C)C)cc(OC)c1OC
- TGI (CAKI-1 renal): > 100 µM
- TGI (T-47D breast): > 100 µM
- TGI (NCI-H460 lung): 52.3 µM
- TGI (RXF-631 renal): > 100 µM
- TGI (U251 CNS): > 82 µM
- TGI (HCT-116 colon): > 70.7 µM
- TGI (OVCAR-4 ovarian): > 95.6 µM
- TGI (NCI-H23 lung): 50.6 µM
- TGI (SNB-19 CNS): > 100 µM
- TGI (CCRF-CEM leukemia): > 77.5 µM
- TGI (KM12 colon): 30.5 µM
- TGI (A549 NSCLC): > 100 µM
- TGI (TK-10 renal): > 100 µM
- TGI (K-562 leukemia): > 100 µM
- TGI (MALME-3M melanoma): > 100 µM
- TGI (IGROV1 ovarian): > 96 µM
- TGI (SK-OV-3 ovarian): > 63.1 µM
- TGI (LXFL 529 NSCLC): > 100 µM
- TGI (KM20L2 colon): > 100 µM
- TGI (MDA-N): 3.01 µM
- TGI (HCT-15 colon): > 70.5 µM
- TGI (MCF7 breast): > 100 µM
- TGI (MDA-MB-435): 15.8 µM
- TGI (SR leukemia): > 61.2 µM
- TGI (HOP-18 NSCLC): > 100 µM
- TGI (HOP-62 NSCLC): > 84.1 µM
- TGI (SF-295 CNS): 38.5 µM
- TGI (OVCAR-8 ovarian): > 70.9 µM
- TGI (RXF 393 renal): 29.5 µM
- TGI (SN12C renal): > 100 µM
- TGI (SW-620 colon): > 100 µM
- TGI (SF-539 CNS): > 57.7 µM
- TGI (DLD-1 colon): > 100 µM
- TGI (HS 578T breast): > 100 µM
- TGI (A498 renal): > 100 µM
- TGI (786-0 renal): > 91.3 µM
- TGI (DU-145 prostate): > 39.5 µM
- TGI (PC-3 prostate): > 100 µM
- TGI (SK-MEL-2 melanoma): > 100 µM
- TGI (MDA-MB-231 breast): > 47.4 µM
- TGI (SK-MEL-28 melanoma): > 100 µM
- TGI (DMS 273 small cell lung): > 100 µM
- TGI (HOP-92 NSCLC): 56.3 µM
- TGI (NCI/ADR-RES ovarian): > 100 µM
- TGI (UO-31 renal): > 100 µM
- TGI (OVCAR-3 ovarian): 13.6 µM
- TGI (DMS 114 small cell lung): 12.8 µM
- TGI (NCI-H226 lung): > 71 µM
- TGI (EKVX NSCLC): > 100 µM
- TGI (OVCAR-5 ovarian): > 100 µM
- TGI (RPMI-8226 leukemia): > 85.8 µM
- TGI (LOX IMVI melanoma): > 100 µM
- TGI (M14 melanoma): > 70.7 µM
- TGI (UACC-257 melanoma): > 100 µM
- TGI (NCI-H522 lung): 15.7 µM
- TGI (SF-268 CNS): > 75.7 µM
- TGI (ACHN renal): > 88.8 µM
- TGI (HT29 colon): > 100 µM
- TGI (BT-549 breast): > 100 µM
- TGI (HL-60(TB) leukemia): > 61.5 µM
- TGI (M19-MEL melanoma): > 66.2 µM
- TGI (MOLT-4 leukemia): > 100 µM
- TGI (HCC-2998 colon): > 95.4 µM
- TGI (SNB-78 CNS): > 100 µM
- TGI (SNB-75 CNS): 53.9 µM
- TGI (SK-MEL-5 melanoma): 56.4 µM
- TGI (UACC-62 melanoma): 58.6 µM
- TGI (COLO 205 colon): > 86.9 µM
